Where two headings read alike, the source gives them in different places.
Tests used:
[1] = system: ENR+CD organoids (ISC to Paneth cell differentiation); test: Primary screen: basal (non-stimulated) lysozyme secretion LYZ.NS, 2.5-D 384-well ENR+CD organoid differentiation; assay type: cell-based, mouse
Description: (§1) High-throughput screening.

[2] = system: ENR+CD organoids (ISC to Paneth cell differentiation); test: Primary screen: CCh-stimulated lysozyme secretion LYZ.S, 2.5-D 384-well ENR+CD organoid differentiation; assay type: cell-based, mouse; conditions: primary screen
Description: as §1

[3] = system: ENR+CD organoids (ISC to Paneth cell differentiation); test: Secondary (validation) screen: LYZ.NS basal lysozyme secretion, 2.5-D 384-well ENR+CD organoids; assay type: cell-based, mouse; conditions: 6-day ENR+CD, vs ENR+CD+DMSO
Method: (§2) Drugs were tested at a narrowed dose range around each treatment's identified optimal dose from the primary screen (4× below, 2× above and below).
as §1
(§3) Secondary lysozyme secretion assay screen. Confirmatory secondary screening with primary hits was performed using the above 384-well plate method. The screen was conducted with 4-plate replicates with a base media of ENR+CD. Media was supplemented with compound at day 0 and day 3 (n=8 well replicates per dose) at four different doses: two-fold above, two-fold below, and four-fold below the optimal final dose for each respective treatment. Additionally, each plate carried a large number of ENR+DMSO or ENR+CD+DMSO (vehicle) control wells (n=100 for ATP, and n=25 for LYZ.NS and LYZ.S) for robust normalization. ATP, non-stimulated lysozyme activity and CCh-stimulated lysozyme activity was again measured and the collected data was again processed in a custom R-script, per primary screen with slight modification. Values were log10 transformed, and a plate-wise FC was calculated for each well based on the median value of ENR+CD+DMSO (vehicle) control wells to normalize plate to plate variability.

[4] = system: ENR+CD organoids (ISC to Paneth cell differentiation); test: Secondary (validation) screen: LYZ.S CCh-stimulated lysozyme secretion, 2.5-D 384-well ENR+CD organoids; assay type: cell-based, mouse; conditions: 6-day ENR+CD, vs ENR+CD+DMSO
Method: as §2, §1, §3

[5] = system: ENR+CD organoids; test: Secondary (validation) screen: ATP (CTG) assay, 2.5-D 384-well ENR+CD organoids; assay type: cell-based, mouse; conditions: 6-day ENR+CD, vs ENR+CD+DMSO
Method: as §2, §1, §3

[6] = system: ENR+CD organoids; test: Primary screen: ATP (CellTiter-Glo 3D, CTG) cell number/viability, 2.5-D 384-well ENR+CD organoids; conditions: primary screen; for Z.CTG: standard z score;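 on all read-outs here: compounds given at plating and again on day 3 over a 6-day differentiation from ENR+CV stem-cell-enriched precursors, ATP measured on day 6, plate median as control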
[7] = system: ENR+CD organoids; conditions: for Z.CTG: standard z score
[8] = primary screen, dose 0.08 uM, standard z score
[9] = primary screen, dose 0.40 uM, standard z score
[10] = primary screen, dose 2.00 uM, standard z score
[11] = primary screen, dose 10.00 uM, standard z score
[12] = primary screen; dose 0.08 uM; FC vs plate median
[13] = primary screen; dose 0.40 uM; FC vs plate median
[14] = primary screen; dose 2.00 uM; FC vs plate median
[15] = primary screen; dose 10.00 uM; FC vs plate median
[16] = dose 0.08 uM, FC vs plate median
[17] = dose 0.40 uM, FC vs plate median
[18] = dose 2.00 uM, FC vs plate median
[19] = dose 10.00 uM, FC vs plate median

CCc1cncnc1N1CCN(Cc2nc3ccc(C(F)(F)F)cc3[nH]2)CC1 [PF-4708671]
Z.LYZ.NS [1, 8]: 0.654
Z.LYZ.NS [1, 9]: 1.059
Z.LYZ.NS [1, 10]: 1.721
Z.LYZ.NS [1, 11]: 0.297
Dose.FC.LYZ.NS [1, 12]: 0.075 log2 fold change
Dose.FC.LYZ.NS [1, 13]: 0.122 log2 fold change
Dose.FC.LYZ.NS [1, 14]: 0.198 log2 fold change
Dose.FC.LYZ.NS [1, 15]: 0.034 log2 fold change
Dose.FC.LYZ.S [2, 16]: 0.136 log2 fold change
Dose.FC.LYZ.S [2, 17]: 0.172 log2 fold change
Dose.FC.LYZ.S [2, 18]: 0.209 log2 fold change
Dose.FC.LYZ.S [2, 19]: −0.024 log2 fold change
Dose.FC.LYZ.NS ([3]; 0.50 uM): 0.005 log2 fold change
Z.LYZ.NS ([3]; 0.50 uM): 0.039
repSSMD.LYZ.NS ([3]; 0.50 uM): 0.058
Dose.FC.LYZ.NS ([3]; 1.00 uM): −0.200 log2 fold change
Z.LYZ.NS ([3]; 1.00 uM): −1.600
repSSMD.LYZ.NS ([3]; 1.00 uM): −1.909
Dose.FC.LYZ.NS ([3]; 2.00 uM): −0.221 log2 fold change
Z.LYZ.NS ([3]; 2.00 uM): −1.764
repSSMD.LYZ.NS ([3]; 2.00 uM): −2.529
Dose.FC.LYZ.NS ([3]; 4.00 uM): 0.015 log2 fold change
Z.LYZ.NS ([3]; 4.00 uM): 0.120
repSSMD.LYZ.NS ([3]; 4.00 uM): 0.171
Dose.FC.LYZ.S ([4]; 0.50 uM): −0.040 log2 fold change
Z.LYZ.S ([4]; 0.50 uM): −0.305
repSSMD.LYZ.S ([4]; 0.50 uM): −0.496
Dose.FC.LYZ.S ([4]; 1.00 uM): −0.245 log2 fold change
Z.LYZ.S ([4]; 1.00 uM): −1.879
repSSMD.LYZ.S ([4]; 1.00 uM): −2.451
Dose.FC.LYZ.S ([4]; 2.00 uM): −0.272 log2 fold change
Z.LYZ.S ([4]; 2.00 uM): −2.088
repSSMD.LYZ.S ([4]; 2.00 uM): −3.604
Dose.FC.LYZ.S ([4]; 4.00 uM): −0.042 log2 fold change
Z.LYZ.S ([4]; 4.00 uM): −0.320
repSSMD.LYZ.S ([4]; 4.00 uM): −0.503
Dose.FC.CTG ([5]; 0.50 uM): −0.049 log2 fold change
Z.CTG ([5]; 0.50 uM): −0.443
repSSMD.CTG ([5]; 0.50 uM): −0.324
Dose.FC.CTG ([5]; 1.00 uM): −0.039 log2 fold change
Z.CTG ([5]; 1.00 uM): −0.354
repSSMD.CTG ([5]; 1.00 uM): −0.284
Dose.FC.CTG ([5]; 2.00 uM): −0.076 log2 fold change
Z.CTG ([5]; 2.00 uM): −0.684
repSSMD.CTG ([5]; 2.00 uM): −0.558
Dose.FC.CTG ([5]; 4.00 uM): 0.067 log2 fold change
Z.CTG ([5]; 4.00 uM): 0.601
repSSMD.CTG ([5]; 4.00 uM): 0.414
Z.CTG ([6]; dose 0.08 uM): 0.623
Z.CTG ([6]; dose 0.40 uM): 0.640
Z.CTG ([6]; dose 2.00 uM): 0.721
Z.CTG ([6]; dose 10.00 uM): −0.766
Dose.FC.CTG [6, 16]: 0.261 log2 fold change
Dose.FC.CTG [6, 17]: 0.268 log2 fold change
Dose.FC.CTG [6, 18]: 0.302 log2 fold change
Dose.FC.CTG [6, 19]: −0.321 log2 fold change

C[C@@H]1O[C@@H](O[C@H]2C[C@@H](O)[C@]3(CO)[C@H]4[C@H](O)C[C@]5(C)[C@@H](C6=CC(=O)OC6)CC[C@]5(O)[C@@H]4CC[C@]3(O)C2)[C@H](O)[C@H](O)[C@H]1O [Ouabain]
Z.LYZ.NS [1, 8]: −0.025
Z.LYZ.NS [1, 9]: 0.315
Z.LYZ.NS [1, 10]: 0.092
Z.LYZ.NS [1, 11]: 1.433
Dose.FC.LYZ.NS [1, 12]: −0.003 log2 fold change
Dose.FC.LYZ.NS [1, 13]: 0.036 log2 fold change
Dose.FC.LYZ.NS [1, 14]: 0.011 log2 fold change
Dose.FC.LYZ.NS [1, 15]: 0.165 log2 fold change
Dose.FC.LYZ.S [2, 16]: 0.040 log2 fold change
Dose.FC.LYZ.S [2, 17]: 0.035 log2 fold change
Dose.FC.LYZ.S [2, 18]: 0.003 log2 fold change
Dose.FC.LYZ.S [2, 19]: 0.050 log2 fold change
Dose.FC.CTG ([7]; 10 µM): −0.288 log2 fold change
Z.CTG ([7]; primary screen, dose 0.08 uM): 0.023
Z.CTG ([7]; primary screen, dose 0.40 uM): 0.290
Z.CTG ([7]; primary screen, dose 2.00 uM): 0.190
Z.CTG ([7]; primary screen, dose 10.00 uM): −0.688
Dose.FC.CTG ([7]; primary screen, dose 0.08 uM, FC vs plate median): 0.010 log2 fold change
Dose.FC.CTG ([7]; primary screen, dose 0.40 uM, FC vs plate median): 0.122 log2 fold change
Dose.FC.CTG ([7]; primary screen, dose 2.00 uM, FC vs plate median): 0.080 log2 fold change

CC(C)(C)NC(=O)[C@H]1CC[C@H]2[C@@H]3CC[C@H]4NC(=O)C=C[C@]4(C)[C@H]3CC[C@]12C [Finasteride, reference compound]
primary screen hit call (SSMD and z-scored FC cutoffs in both LYZ assays) ([1]; LYZ.NS and LYZ.S; 0.08-10 uM, 6 days ENR+CD): sole hit in their respective pathway
Dose.FC.LYZ.NS ([1]; primary screen, dose 0.08 uM): 0.205 log2 fold change
Dose.FC.LYZ.NS ([1]; primary screen, dose 0.40 uM): 0.213 log2 fold change
Dose.FC.LYZ.NS ([1]; primary screen, dose 2.00 uM): 0.142 log2 fold change
Dose.FC.LYZ.NS ([1]; primary screen, dose 10.00 uM): 0.067 log2 fold change
Z.LYZ.NS ([1]; primary screen, standard z score, dose 0.08 uM): 1.781
Z.LYZ.NS ([1]; primary screen, standard z score, dose 0.40 uM): 1.852
Z.LYZ.NS ([1]; primary screen, standard z score, dose 2.00 uM): 1.236
Z.LYZ.NS ([1]; primary screen, standard z score, dose 10.00 uM): 0.587
Dose.FC.LYZ.S ([2]; dose 0.08 uM): 0.199 log2 fold change
Dose.FC.LYZ.S ([2]; dose 0.40 uM): 0.211 log2 fold change
Dose.FC.LYZ.S ([2]; dose 2.00 uM): 0.156 log2 fold change
Dose.FC.LYZ.S ([2]; dose 10.00 uM): 0.056 log2 fold change
Dose.FC.LYZ.NS ([3]; 0.02 uM): 0.056 log2 fold change
Dose.FC.LYZ.NS ([3]; 0.04 uM): −0.189 log2 fold change
Dose.FC.LYZ.NS ([3]; 0.08 uM): −0.191 log2 fold change
Dose.FC.LYZ.NS ([3]; […]): −0.203 log2 fold change
Dose.FC.LYZ.S ([4]; 0.02 uM): −0.019 log2 fold change
Dose.FC.LYZ.S ([4]; 0.04 uM): −0.260 log2 fold change
Dose.FC.LYZ.S ([4]; 0.08 uM): −0.242 log2 fold change
Dose.FC.LYZ.S ([4]; […]): −0.253 log2 fold change
Dose.FC.CTG ([5]; 0.02 uM): 0.066 log2 fold change
Dose.FC.CTG ([5]; 0.04 uM): −0.180 log2 fold change
Dose.FC.CTG ([5]; 0.08 uM): −0.011 log2 fold change
Dose.FC.CTG ([5]; […]): −0.065 log2 fold change
Dose.FC.CTG ([6]; dose 0.08 uM): 0.151 log2 fold change
Dose.FC.CTG ([6]; dose 0.40 uM): −0.038 log2 fold change
Dose.FC.CTG ([6]; dose 2.00 uM): 0.073 log2 fold change
Dose.FC.CTG ([6]; dose 10.00 uM): −0.041 log2 fold change

— patent US20220323406A1, “METHODS AND COMPOSITIONS FOR DIFFERENTIATING STEM CELLS” (Massachusetts Institute of Technology, priority 2019, published 2022)
